According to patent US11155530B2, “Urea-oxaziridines” (The Regents of the University of California, priority 2018, dated 2021):

Experiment: Stability of redox conjugation product-sulfimide
Format: physicochemical
Conditions: salt form formed from S3 under strong acidic condition (1 N HCl); co-solvent d-MeOD/D2O=1:1; monitored by NMR after 1 h and 18 h
Procedure: The stability of sulfimides were tested by treatment of sulfimides S2 with 5 mM TCEP or treatment of sulfimides S3 with 1 N HCl, 1 N NaOH or 80° C. in co-solvent (d-MeOD/D2O=1:1). The reactions were monitored by NMR after 1 h and 18 h and the reaction conversions were calculated based on NMR data. Sulfimide S3 can be protonated under strong acidic condition to its salt form S4, which is stable in aqueous solution.

stability in aqueous solution: stable
SMILES: CCNC(=O)N[S+](C)c1ccccc1.[Cl-] (stereo not shown) [Compound S4]
